Several values for one entry are separate records, joined by “and”; a condition that tells them apart may be missing. Equal entries are not always repeated.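 Test compounds were applied to cells in 96-well plates for 48 hours at 5 doses. GI50 marks 50% less growth. Definition used: TGI = concentration required for complete inhibition of growth.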

Common to all, as to test: NCI-60 cell line screen, 48 h
Assay [1] deals with MCF7 breast.
Assay [2] deals with MDA-MB-435.
Assay [3] deals with MDA-N.
Assay [4] concerns KM20L2 colon.
In assay [5] the test system is XF 498 CNS.
The test system of assay [6] is DLD-1 colon.
In assay [7] the test system is LXFL 529 NSCLC.

For `C(=Nc1ccccc1)C1CCCC[N-]1.C(=Nc1ccccc1)C1CCCC[N-]1.[Cu+2].[O-][Cl+3]([O-])([O-])O` (stereo unspecified), the figures for the GI50 in assay [1] and in assay [2] were 23.8 µM and 1.57 µM, respectively. Also, the TGI in assay [1] was greater than 100 µM; in assay [2] it was 4.31 µM.
On to `CN1C(=O)c2c(ccc3c2OCO3)C2C(O)Cc3cc4c(cc3C21)OCO4` (stereo unspecified), for which the TGI in assay [1] is greater than 100 µM; in assay [3] it was 5.56 µM.
For `COc1ccc2c(c1)C(=O)c1c-2n(CCCN)c(=O)c2ccccc12`, in assay [1], the GI50 is less than 0.01 µM and the TGI amounted to 1.07 µM. For the same compound, in assay [2], the GI50 is 0.146 µM and the TGI was found to be 1.61 µM.
In the case of `CCC1(C)NN=c2s/c(=C/c3ccc(OC)cc3)c(=O)n2N1` (stereo unspecified), the TGI in assay [4], in assay [5], in assay [6] and in assay [7] was greater than 100 µM in each case.
On to `C=C(Cn1c(=O)c2ccccc2c2ccccc21)c1ccc(C(=O)Nc2ccccc2N)cc1`, for which the results for the GI50 in assay [1] and in assay [2] were 69.8 µM and 24.2 µM, respectively. The TGI in assay [1] and in assay [2] was greater than 100 µM in each case.
Regarding `Cc1nc2ccc(CN(C)c3ccc(C(=O)N[C@@H](CCC(=O)O)C(=O)O)s3)cc2c(=O)[nH]1`, the TGI in assay [1] and in assay [2] was greater than 100 µM each time.
Compound `C=CCC1OC(C)(C)Oc2ccc(OCOCCOC)cc21` (stereo unspecified) showed a TGI in assay [7] greater than 100 µM.
Take `O=C(O)CSCc1cccc2ccccc12`: the TGI in assay [1], in assay [2] and in assay [3] was greater than 100 µM in each case.
Consider `O=P([O-])(O)OP(=O)([O-])O.[NH-][C@H]1CCCC[C@@H]1[NH-].[OH-].[OH-].[Pt+4]`, for which, in assay [1], the GI50 was 32.1 µM and the TGI is greater than 100 µM. For the same compound, in assay [2], the GI50 is 31.2 µM and the TGI is greater than 100 µM.
Take `CC(C)[C@](O)(c1ccc2cc(OC(F)F)c(OC(F)F)cc2c1)c1cn[nH]n1`: the TGI in assay [1] was 22.4 µM and 35.9 µM. For the same compound, in assay [2], the GI50 is 16 µM and 15.4 µM; the TGI was 32.6 µM and 33 µM.
Take `CC(C)=CCN=C(N)N`: the TGI in assay [1], in assay [2] and in assay [3] was greater than 100 µM throughout.
With `COc1cc(/C(Cl)=C/C=C/C(=O)c2c(C)[n+]([O-])c3ccc(Cl)cc3[n+]2[O-])cc(OC)c1OC`, the GI50 in assay [1] was 1.76 µM; in assay [2] it was 0.673 µM. The TGI was greater than 50 µM in assay [1] and 1.74 µM in assay [2].
Turning to `C=C1C(=O)O[C@H]2[C@H]1CC/C(CNC(=O)/C=C/c1ccc(Br)cc1)=C\CC[C@@]1(C)O[C@@H]21`, in assay [2], the GI50 is 0.632 µM and the TGI is 2.07 µM.
Turning to `O=C(Nc1ccc(Cl)cc1Cl)c1ccc(NC2=C(Cl)C(=O)N(Cc3ccccc3)C2=O)cc1`, in assay [1], the GI50 is 5.91 µM and the TGI turned out to be 30.6 µM. In assay [2], the GI50 was 32.5 µM and the TGI was greater than 100 µM.
For `CN1CCN(c2ccc(C(=O)Nc3n[nH]c4ccc(Cc5cc(F)cc(F)c5)cc34)c(NC3CCOCC3)c2)CC1`, in assay [1], the GI50 was 0.983 µM and 0.485 µM; the TGI was 5.73 µM and 1.93 µM. Moreover, in assay [2], the GI50 is 1.39 µM and 1.49 µM; the TGI is 2.86 µM and 3.13 µM.
For `COc1cc2c(cc1O)C=NCC2`, the TGI in assay [4], in assay [5], in assay [6] and in assay [7] was greater than 100 µM in each case.
Consider `CCCN(CCC)CCCNCc1cc(I)cc(C)c1O`, for which, in assay [1], the GI50 was 17.6 µM and the TGI worked out at 31.8 µM. Further, in assay [2], the GI50 is 12 µM and the TGI turned out to be 24.8 µM.
Take `Nc1ccn(C2OC(CO)C(O)C2F)c(=O)n1` (stereo unspecified): the GI50 in assay [1] is 2.98 µM; in assay [2], 867 µM and > 5000 µM. The TGI in assay [1] and in assay [2] was greater than 5000 µM throughout.
Regarding `C#CCC[C@@H]1O[C@@]1(C)CC/C=C(\C)CC/C=C/C=O`, the TGI in assay [4] was greater than 100 µM; in assay [5] it was 58.2 µM; in assay [7] it was 51.1 µM.
In the case of `COc1ccc(/C(=N/NC(N)=O)C2(O)C(=O)Nc3ccc([N+](=O)[O-])cc32)cc1` (stereo unspecified), the TGI in assay [4] was 51.5 µM; in assay [5], 30.1 µM; in assay [6], 57 µM; in assay [7], 35.9 µM.
As for `COC(=O)[C@@H](NC(=O)NC(=O)NC(=O)CI)C(C)C`, in assay [1], the GI50 was 3.03 µM and the TGI was found to be 12.7 µM. In addition, in assay [2], the GI50 is 9.97 µM and the TGI is 21.7 µM.
Consider `Cc1nc2sccn2c1/C=C1/C(=O)Nc2ccccc21`, for which, in assay [1], the GI50 is 1.02 µM and the TGI was greater than 100 µM. Besides, in assay [2], the GI50 is 0.582 µM and the TGI was found to be 11 µM.
Regarding `COc1cccc([C@H]2CC(=O)c3cc4c(cc3N2)OCO4)c1`, the GI50 in assay [1] is 0.0568 µM; in assay [2], 0.0177 µM; in assay [3], 0.0287 µM. In addition, the TGI in assay [1] is greater than 100 µM; in assay [2], 0.044 µM.
Regarding `COc1ccc(-c2[nH]ncc2-c2cc3c(c(OC)c2)OCC(=O)N3)cc1`, in assay [1], the GI50 is 0.315 µM and the TGI amounted to 62.4 µM.
On to `Cc1ccc(NCCCN2CCN(CCCNc3ccc(C)c4sc5ccccc5c(=O)c34)CC2)c2c(=O)c3ccccc3sc12`, for which the TGI in assay [1], in assay [2] and in assay [3] was greater than 100 µM throughout.
Regarding `CNC(=O)c1cc(COc2nnc(Nc3ccc(Cl)cc3)c3ccoc23)ccn1`, the GI50 in assay [1] was 7.17 µM and > 10 µM; in assay [2], 10.4 µM and > 10 µM. Also, the TGI is 36.1 µM and > 10 µM in assay [1]; 43.9 µM and > 10 µM in assay [2].
`CC1CC2C3CC(F)C4=CC(=O)C=CC4(C)C3(F)C(O)CC2(C)C1(O)C(=O)COC(=O)C(C)(C)C` (stereo unspecified): the TGI in assay [4], in assay [5] and in assay [6] was greater than 100 µM throughout.
For the compound `NS(=O)(=O)c1ccc(NC(=O)c2ccc(NC3=C(Cl)C(=O)N(Cc4ccccc4)C3=O)cc2)cc1`, in assay [1], the GI50 is 3.03 µM and the TGI is greater than 100 µM. In assay [2], the GI50 was 10.6 µM and the TGI came to 26.5 µM.

Source of the values: PubChem BioAssay (NCI).
